Test results as given in the supplement of paper PMC10307832.

What follows are cell lines tested with CC(C)C[C@H](NC(=O)[C@H](CCc1ccccc1)NC(=O)CN1CCOCC1)C(=O)N[C@@H](Cc1ccccc1)C(=O)N[C@@H](CC(C)C)C(=O)[C@@]1(C)CO1 [Carfilzomib] + CC(C)C[C@H](NC(=O)[C@H](Cc1ccccc1)NC(=O)c1cnccn1)B(O)O [Bortezomib] (partner 0.002 µM) (assay: relative viability (nuclei count vs DMSO), 5 days (fraction); higher = more cells survive). Settings: first compound 0.001 µM.
Procedure, shortened: (§1)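 Dosing by pin tool came one day after lung cancer cell lines were seeded in 1536-well plates, using either one drug or a fixed anchor-drug dose plus five library-drug doses (not always all listed) in √10 steps. After 5 days, nuclei were counted on 4× images. Relative viability is treated-well nuclei count divided by vehicle-well nuclei count, and values are medians of duplicate plates.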
For NCI-H2009, the relative viability was 1.11. Work on NCI-H2023 yielded a relative viability of 0.951. For NCI-H2085, the relative viability was 1.03. Work on NCI-H2087 yielded a relative viability of 0.803. Work on NCI-H2126 yielded a relative viability of 1.11. NCI-H2228 showed a relative viability of 0.94. NCI-H2347 gave a relative viability of 0.611. Work on NCI-H2405 yielded a relative viability of 0.926. Work on NCI-H3122 yielded a relative viability of 1.04.

Same assay, conditions: first compound 0.003162 µM
LU99A gave a relative viability of 1.31. For LXF-289, the relative viability was 0.957. NCI-H23 was tested, and the relative viability was 0.92. NCI-H322M was tested, and the relative viability was 1.31. For NCI-H460, the relative viability was 1.12. Work on NCI-H520 yielded a relative viability of 0.179. NCI-H596 showed a relative viability of 0.987. NCI-H647 was tested, and the relative viability was 0.72. Cell Line NCI-H650 has a relative viability of 0.701. Work on NCI-H661 yielded a relative viability of 0.965. In the case of NCI-H727, the relative viability is reported as 0.77. NCI-H838 showed a relative viability of 0.838. NCI-H1355 gave a relative viability of 1.1. For NCI-H1437, the relative viability was 0.5. Work on NCI-H1563 yielded a relative viability of 0.985. NCI-H1650 gave a relative viability of 0.19. Cell Line NCI-H1651 has a relative viability of 0.836. With NCI-H1666 the relative viability was 0.888. NCI-H1734 was tested, and the relative viability was 1.1. In the case of NCI-H1755, the relative viability is reported as 1.02. NCI-H1792 was tested, and the relative viability was 1. Cell Line NCI-H1915 has a relative viability of 0.849. NCI-H1975 gave a relative viability of 0.266. In the case of NCI-H1993, the relative viability is reported as 1.18. NCI-H2009 gave a relative viability of 1.26. With NCI-H2023 the relative viability was 1.07. Cell Line NCI-H2085 has a relative viability of 0.923. NCI-H2087 gave a relative viability of 0.793. Cell Line NCI-H2126 has a relative viability of 1.12. NCI-H2228 was tested, and the relative viability was 0.54. In the case of NCI-H2347, the relative viability is reported as 0.89. NCI-H2405 was tested, and the relative viability was 1.01. Work on NCI-H3122 yielded a relative viability of 0.996.

Same assay, conditions: first compound 0.01 µM
LU99A was tested, and the relative viability was 1.05. Cell Line LXF-289 has a relative viability of 0.653. With NCI-H23 the relative viability was 0.445. Work on NCI-H322M yielded a relative viability of 1.35. NCI-H460 gave a relative viability of 1. In the case of NCI-H520, the relative viability is reported as 0.142. NCI-H596 showed a relative viability of 0.839. With NCI-H647 the relative viability was 0.154. For NCI-H650, the relative viability was 0.619. Cell Line NCI-H661 has a relative viability of 0.842. For NCI-H727, the relative viability was 0.795. Work on NCI-H838 yielded a relative viability of 0.624. NCI-H1355 showed a relative viability of 1.15. NCI-H1437 was tested, and the relative viability was 0.437. NCI-H1563 showed a relative viability of 0.836. For NCI-H1650, the relative viability was 0.17. NCI-H1651 gave a relative viability of 0.647. Cell Line NCI-H1666 has a relative viability of 0.771. With NCI-H1734 the relative viability was 0.484. Work on NCI-H1755 yielded a relative viability of 0.685. In the case of NCI-H1792, the relative viability is reported as 0.919. For NCI-H1915, the relative viability was 1.03. In the case of NCI-H1975, the relative viability is reported as 0.137. In the case of NCI-H1993, the relative viability is reported as 1.1. In the case of NCI-H2009, the relative viability is reported as 0.78. In the case of NCI-H2023, the relative viability is reported as 1.01. With NCI-H2085 the relative viability was 0.773. NCI-H2087 showed a relative viability of 0.202. With NCI-H2126 the relative viability was 1.1. Work on NCI-H2228 yielded a relative viability of 0.257. With NCI-H2347 the relative viability was 0.698. With NCI-H2405 the relative viability was 1.06. NCI-H3122 showed a relative viability of 1.05.

Same assay, conditions: first compound 0.03162 µM
LU99A gave a relative viability of 0.459. Cell Line LXF-289 has a relative viability of 0.0711. For NCI-H23, the relative viability was 0.165. Cell Line NCI-H322M has a relative viability of 1.21. In the case of NCI-H460, the relative viability is reported as 0.0827. Work on NCI-H520 yielded a relative viability of 0.129. NCI-H596 gave a relative viability of 0.483. With NCI-H647 the relative viability was 0.0243. With NCI-H650 the relative viability was 0.145. With NCI-H661 the relative viability was 0.384. Work on NCI-H727 yielded a relative viability of 0.3. NCI-H838 gave a relative viability of 0.179. NCI-H1355 was tested, and the relative viability was 0.315. NCI-H1437 showed a relative viability of 0.176. Work on NCI-H1563 yielded a relative viability of 0.513. Work on NCI-H1650 yielded a relative viability of 0.195. NCI-H1651 gave a relative viability of 0.292. Work on NCI-H1666 yielded a relative viability of 0.188. Cell Line NCI-H1734 has a relative viability of 0.147. NCI-H1755 gave a relative viability of 0.282. NCI-H1792 gave a relative viability of 0.979. With NCI-H1915 the relative viability was 0.142. NCI-H1975 was tested, and the relative viability was 0.122. NCI-H1993 was tested, and the relative viability was 0.453. Work on NCI-H2009 yielded a relative viability of 0.122. NCI-H2023 was tested, and the relative viability was 0.184. Work on NCI-H2085 yielded a relative viability of 0.451. NCI-H2087 showed a relative viability of 0.0909. NCI-H2126 gave a relative viability of 0.945. Cell Line NCI-H2228 has a relative viability of 0.0941. Cell Line NCI-H2347 has a relative viability of 0.361. In the case of NCI-H2405, the relative viability is reported as 0.15. NCI-H3122 was tested, and the relative viability was 0.855.

Same assay, conditions: first compound 0.1 µM
LU99A gave a relative viability of 0.216. For LXF-289, the relative viability was 0.0774. In the case of NCI-H23, the relative viability is reported as 0.125. In the case of NCI-H322M, the relative viability is reported as 0.66. In the case of NCI-H460, the relative viability is reported as 0.0107. NCI-H520 gave a relative viability of 0.132. NCI-H596 gave a relative viability of 0.2. In the case of NCI-H647, the relative viability is reported as 0.0299. Cell Line NCI-H650 has a relative viability of 0.157. Cell Line NCI-H661 has a relative viability of 0.214. NCI-H727 gave a relative viability of 0.147. Work on NCI-H838 yielded a relative viability of 0.114. For NCI-H1355, the relative viability was 0.157. In the case of NCI-H1437, the relative viability is reported as 0.13. In the case of NCI-H1563, the relative viability is reported as 0.477. NCI-H1650 showed a relative viability of 0.197. With NCI-H1651 the relative viability was 0.134. For NCI-H1666, the relative viability was 0.218. NCI-H1734 gave a relative viability of 0.146. With NCI-H1755 the relative viability was 0.221. For NCI-H1792, the relative viability was 0.559. NCI-H1915 showed a relative viability of 0.0581. NCI-H1975 gave a relative viability of 0.13. For NCI-H1993, the relative viability was 0.425. Cell Line NCI-H2009 has a relative viability of 0.0487. NCI-H2023 gave a relative viability of 0.0639. Cell Line NCI-H2085 has a relative viability of 0.313. Cell Line NCI-H2087 has a relative viability of 0.101. NCI-H2126 gave a relative viability of 0.554. In the case of NCI-H2228, the relative viability is reported as 0.156. With NCI-H2347 the relative viability was 0.268. NCI-H2405 showed a relative viability of 0.202. NCI-H3122 was tested, and the relative viability was 0.814.

These cell lines were tested with CC(C)C[C@H](NC(=O)[C@H](CCc1ccccc1)NC(=O)CN1CCOCC1)C(=O)N[C@@H](Cc1ccccc1)C(=O)N[C@@H](CC(C)C)C(=O)[C@@]1(C)CO1 [Carfilzomib] + CS(=O)(=O)CCNCc1ccc(-c2ccc3ncnc(Nc4ccc(OCc5cccc(F)c5)c(Cl)c4)c3c2)o1 [Lapatinib] (partner 2 µM) in the same assay as above. Settings: first compound 0.001 µM.
Procedure, shortened: as §1
Work on LU99A yielded a relative viability of 1. With LXF-289 the relative viability was 0.921. NCI-H23 showed a relative viability of 1.01. Work on NCI-H322M yielded a relative viability of 0.477. NCI-H460 gave a relative viability of 0.954. NCI-H520 gave a relative viability of 0.89. For NCI-H596, the relative viability was 0.965. NCI-H647 showed a relative viability of 0.974. For NCI-H650, the relative viability was 0.61. NCI-H661 gave a relative viability of 0.548. NCI-H727 showed a relative viability of 0.72. NCI-H838 was tested, and the relative viability was 0.889. NCI-H1355 was tested, and the relative viability was 0.872. NCI-H1437 showed a relative viability of 0.78.
